Measurements taken from patent US10519098B2, “Aromatic derivatives as anti-malarial” (Council of Scientific & Industrial Research, priority 2014, dated 2019).
Where two headings read alike, the source gives them in different places.

How the values were obtained:
[1] = system: chloroquine resistant P. yoelii (N-67); assay: In vivo evaluation in P. yoelii (N-67) Swiss mice model; details: positive control, 5 mg/kg ×4 intramuscular; one value per mouse
Method: The molecules were tested at 100 mg/kg dose through intraperitoneal route. The mice received infective inoculum containing 1×10^5 parasites on day 0 and then received four doses of test compound on day 0-3 once daily. Five infected mice were used for each molecule and five infected mice were kept as untreated control. Arteether (5 mg/kg, ×4, intramuscular) was used as positive control. Thin blood smear from tail blood of each mouse was prepared on day 4. The blood smears were fixed in methanol, stained with Giemsa's stain and examined under the light microscope (100×oil immersion). At least 10-15 fields per smear were scanned to obtain percent parasitaemia in treated as well as untreated mice. If significant suppression in percent parasitaemia is observed on day 4, the monitoring continues up to day 28.

[2] = system: Chloroquine-sensitive (3D7) strain of P. falciparum; assay: Malaria SYBR Green I-based fluorescence (MSF) assay, 3D7 strain; format: cell-based; details: Plasmodium falciparum
Method: (§1) The stock (5 mg/mL or 10 mM) solutions of extracts were prepared in DMSO and required dilutions were made in culture medium.
(§2) Two-fold serial dilutions of test samples were made in 96 well plates and incubated with 1.0% parasitized cell suspension containing 0.8% parasitaemia (Asynchronous culture with more than 80% ring stages). The plates were incubated at 37° C. in CO2 incubator in an atmosphere of 5% CO2 and air mixture. 72 hours later 100 μL of lysis buffer containing 2× concentration of SYBR Green-I (Invitrogen) was added to each well and incubated for one hour at 37° C. The plates were examined at 485±20 nm of excitation and 530±20 nm of emission for relative fluorescence units (RFUs) per well using the fluorescence plate reader (FLX800, BIOTEK). IC50 values were obtained by Logit regression analysis of dose response curves (Singh et al. 2011).

[3] = system: Chloroquine-resistant (K1) strain of P. falciparum; assay: Malaria SYBR Green I-based fluorescence (MSF) assay, K1 strain; format: cell-based; details: Plasmodium falciparum
Method: as §1, §2

in vitro = details: monkey
Method: (§3) The cells were incubated with test sample dilutions for 72 h and MTT was used as reagent for detection of cytotoxicity. Podophyllotoxin (SIGMA) was used as the standard reference drug.

[4] = system: Vero cell line (C1008; Monkey kidney fibroblast); assay: in vitro; details: 72 h
Method: as §3

[5] = 3D7, range given for listed compounds, read-out: IC50 values against 3D7 culture
[6] = P. falciparum 3D7, 72 hours incubation, read-out: IC50 against 3D7
[7] = K1, range given for listed compounds, read-out: IC50 values against K1 culture
[8] = P. falciparum K1, 72 hours incubation, read-out: IC50 against K1

SMILES | IC50 [2, 5] | IC50 [2, 6] | IC50 [3, 7] | IC50 [3, 8] | melting point | % parasitaemia on day 4 in 5 individual mice [1] | CC50 at 72 h (in vitro) | CC50 [4]
CCO[C@H]1O[C@@H]2O[C@@]3(C)CC[C@H]4[C@H](C)CC[C@@H]([C@H]1C)[C@@]24OO3 [Arteether, reference compound] | – | – | – | – | – | 0.0% | – | –
COc1cc([C@@H](CNC(=O)/C=C/c2ccccc2)OC(=O)/C=C/c2ccccc2)cc(OC)c1OC [Compound 5, (S)-2-cinnamamido-1-(3,4,5-trimethoxyphenyl)ethyl cinnamate] | 2 to 7 µM | 6.69 µM | 1.5 to 4 µM | 3.64 µM | 126 to 128 °C | – | 66.7 µM | –
COc1ccccc1[C@@H](CNC(=O)/C=C/c1ccccc1)OC(=O)/C=C/c1ccccc1 [Compound 9, (S)-2-cinnamamido-1-(2-methoxyphenyl)ethyl cinnamate] | – | > 5 µM | – | > 5 µM | 112 to 114 °C | – | 77.8 µM | –
COc1cccc([C@H](CNC(=O)/C=C/c2ccccc2)OC(=O)/C=C/c2ccccc2)c1OC [Compound 22, (R)-2-cinnamamido-1-(2,3-dimethoxyphenyl)ethyl cinnamate] | – | > 5 µM | – | > 5 µM | 105 to 107 °C | – | 194 µM | –
O=C(/C=C/c1ccccc1)NC[C@@H](OC(=O)/C=C/c1ccccc1)c1ccccc1 [Compound 25, (S)-2-cinnamamido-1-phenylethyl cinnamate] | – | 3.85 µM | – | > 10 µM | 181 to 183 °C | – | 31.7 µM | –
O=C(/C=C/c1ccccc1)NC[C@H](OC(=O)/C=C/c1ccccc1)c1ccccc1 [Compound 26, (R)-2-cinnamamido-1-phenylethyl cinnamate] | – | 4.72 µM | – | > 10 µM | 183 to 185 °C | – | 63.9 µM | –
Cc1ccc([C@@H](CNC(=O)/C=C/c2ccccc2)OC(=O)/C=C/c2ccccc2)cc1 [Compound 29, (S)-2-cinnamamido-1-(p-tolyl) ethyl cinnamate] | – | 6.77 µM | – | > 10 µM | 139 to 140 °C | – | 141 µM | –
Cc1ccc([C@H](CNC(=O)/C=C/c2ccccc2)OC(=O)/C=C/c2ccccc2)cc1 [Compound 30, (R)-2-cinnamamido-1-(p-tolyl) ethyl cinnamate] | – | 6.97 µM | – | > 10 µM | 139 to 141 °C | – | 49.4 µM | –
Cc1ccc([C@@H](COC(=O)/C=C/c2ccccc2)OC(=O)/C=C/c2ccccc2)cc1 [Compound 31, (S)-1-(p-tolyl) ethane-1,2-diyl (2E,2′E)-bis(3-phenylacrylate)] | – | > 5 µM | – | > 5 µM | 103 to 105 °C | – | > 200 µM | –
O=C(/C=C/c1ccccc1)NC[C@@H](OC(=O)/C=C/c1ccccc1)c1ccc2c(c1)OCO2 [Compound 33, (S)-1-(benzo[d][1,3]dioxol-5-yl)-2-cinnamamidoethyl cinnamate] | – | > 5 µM | – | > 5 µM | 186 to 190 °C | – | 190 µM | –
O=C(/C=C/c1ccccc1)OC[C@@H](OC(=O)/C=C/c1ccccc1)c1ccc2c(c1)OCO2 [Compound 35, (S)-1-(benzo[d][1,3]dioxol-5-yl)ethane-1,2-diyl(2E,2′E)-bis(3-phenyl acrylate)] | – | > 5 µM | – | – | 106 to 107 °C | – | 31.8 µM | –
COc1ccc([C@@H](CNC(=O)/C=C/c2ccc(O[Si](C)(C)C(C)(C)C)cc2)OC(=O)/C=C/c2ccc(O[Si](C)(C)C(C)(C)C)cc2)cc1OC [Compound 48, (S)-2-((E)-3-(4-((tert-butyldimethylsilyl)oxy)phenyl)acrylamido)-1-(3,4-dimethoxyphenyl)ethyl (E)-3-(4-((tert-butyldimethylsilyl)oxy)phenyl)acrylate] | – | 7.92 µM | – | 3.37 µM | 63 to 65 °C | – | 40.8 µM | –

Further lines, with some results ahead:

IC50 [2, 5] | IC50 [2, 6] | IC50 [3, 7] | IC50 [3, 8] | melting point | SMILES | % parasitaemia on day 4 in 5 individual mice [1] | CC50 at 72 h (in vitro) | CC50 [4]
– | > 5 µM | – | – | 108 to 110 °C | O=C(/C=C/c1ccccc1)OC[C@H](OC(=O)/C=C/c1ccccc1)c1ccc2c(c1)OCO2 [Compound 36, (R)-1-(benzo[d][1,3]dioxol-5-yl)ethane-1,2-diyl(2E,2′E)-bis(3-phenyl acrylate)] | – | 56.6 µM | –
– | 6.67 µM | – | > 10 µM | 129 to 131 °C | COc1ccc([C@@H](CNC(=O)c2ccccc2)OC(=O)c2ccccc2)cc1OC [Compound 39, (S)-2-benzamido-1-(3,4-dimethoxyphenyl) ethyl benzoate] | – | 8.16 µM | –
– | 3.66 µM | – | > 10 µM | 128 to 130 °C | COc1ccc([C@H](CNC(=O)c2ccccc2)OC(=O)c2ccccc2)cc1OC [Compound 40, (R)-2-benzamido-1-(3,4-dimethoxyphenyl) ethyl benzoate] | – | 104 µM | –
– | 2.86 µM | – | > 10 µM | 82 to 84 °C | COc1ccc([C@@H](CNC(=O)CCc2ccccc2)OC(=O)CCc2ccccc2)cc1OC [Compound 43, (S)-1-(3,4-dimethoxyphenyl)-2-(3-phenylpropanamido)ethyl 3-phenyl propanoate] | – | 39.3 µM | –
– | 5.86 µM | – | > 10 µM | 77 to 78 °C | COc1ccc([C@H](CNC(=O)CCc2ccccc2)OC(=O)CCc2ccccc2)cc1OC [Compound 44, (R)-1-(3,4-dimethoxyphenyl)-2-(3-phenylpropanamido)ethyl 3-phenyl propanoate] | – | 73.2 µM | –
– | > 10 µM | – | > 10 µM | 101 to 103 °C | COc1ccc([C@@H](CNC(=O)/C=C/c2ccccc2)OC(=O)CCc2ccccc2)cc1OC [Compound 49, (S)-2-cinnamamido-1-(3,4-dimethoxyphenyl)ethyl 3-phenylpropanoate] | – | – | 36.9 µM
– | > 10 µM | – | > 10 µM | 112 to 114 °C | COc1ccc([C@@H](CNC(=O)CCc2ccccc2)OC(=O)/C=C/c2ccccc2)cc1OC [Compound 50, (S)-1-(3,4-dimethoxyphenyl)-2-(3-phenylpropanamido)ethylcinnamate] | – | – | 44.3 µM
– | > 10 µM | – | > 10 µM | 93 to 94 °C | CCCC(=O)NC[C@@H](OC(=O)/C=C/c1ccccc1)c1ccc(OC)c(OC)c1 [Compound 51, (S)-2-butyramido-1-(3,4-dimethoxyphenyl)ethyl cinnamate] | – | – | 42.4 µM
– | > 10 µM | – | > 10 µM | – | CCCC(=O)O[C@H](CNC(=O)/C=C/c1ccccc1)c1ccc(OC)c(OC)c1 [Compound 52, (S)-2-cinnamamido-1-(3,4-dimethoxyphenyl)ethyl butyrate] | – | – | 29.9 µM
– | > 10 µM | – | > 10 µM | 120 to 121 °C | O=C(/C=C/c1ccccc1)OC[C@@H](OC(=O)/C=C/c1ccccc1)c1ccc2ccccc2c1 [Compound 53, (S)-1-(naphthalen-2-yl)ethane-1,2-diyl (2E,2′E)-bis(3-phenylacrylate)] | – | – | > 200 µM
– | > 10 µM | – | 2.15 µM | 123 to 124 °C | O=C(/C=C/c1ccccc1)OC[C@H](OC(=O)/C=C/c1ccccc1)c1ccc2ccccc2c1 [Compound 54, (R)-1-(naphthalen-2-yl)ethane-1,2-diyl (2E,2′E)-bis (3-phenylacrylate)] | – | – | 181 µM
– | > 10 µM | – | > 10 µM | 117 to 120 °C | COc1ccc([C@@H](COC(=O)/C=C/c2ccccc2)NC(=O)/C=C/c2ccccc2)cc1OC [Compound 55, (S)-2-cinnamamido-2-(3,4-dimethoxyphenyl)ethyl cinnamate] | – | 55.6 µM | –
2 to 7 µM | 6.29 µM | 1.5 to 4 µM | 2.23 µM | 61 to 62 °C | COc1cc(/C=C/C(=O)OC[C@@H](OC(=O)/C=C/c2cc(OC)c(OC)c(OC)c2)c2cc(OC)c(OC)c(OC)c2)cc(OC)c1OC [Compound 57, (S)-1-(3,4,5-trimethoxyphenyl)ethane-1,2-diyl(2E,2′E)-bis(3-(3,4,5-trimethoxyphenyl)acrylate)] | – | 47.4 µM | –
